Measurements: ChEMBL document CHEMBL4627407, “Identification of a Potent Oridonin Analogue for Treatment of Triple-Negative Breast Cancer” (J Med Chem, 2020)
Calls of active or inactive are those of the source. The rule behind the calls is not given here.

Experiments:
T47D = assay: Antiproliferative activity against human T47D cells after 72 hrs by MTT assay; assay type: functional, cell-based
HCC1806 [1] = assay: Inhibition of cell invasion in human HCC1806 cells at 100 to 200 nM incubated for 48 hrs by crystal violet staining based matrigel coated transwell assay; assay type: functional
HCC1806 [2] = assay: Induction of apoptosis in human HCC1806 cells assessed as late apoptotic cells at 100 uM after 48 hrs by Annexin V-FITC/propidium iodide double staining based flow cytometry (reference value: 0.81%); assay type: functional
[3] = Toxicity in ICR mouse assessed as induction of morphological changes in kidney at 25 mg/kg, iv administered once per day for 23 consecutive days; assay type: organism-based; details: in vivo
HCC1806 [4] = assay: Induction of cell cycle arrest in human HCC1806 cells assessed as accumulation at G1 phase at 50 nM after 48 hrs by propidium iodide staining based FACScan flow cytometry (reference value: 70.74%); assay type: functional
HCC1806 [5] = assay: Induction of cell cycle arrest in human HCC1806 cells assessed as downregulation of cdc2 expression by western blot analysis; assay type: functional, cell-based

IC50 (T47D): 560 nM
Compound: C=C1C(=O)[C@@]23C(=O)[C@@H]4OC[C@]5(C=CCC(C)(C)[C@@H]45)[C@@H]2CC[C@@H]1[C@H]3OC(=O)/C=C/c1ccncc1
inhibition (HCC1806 [1]): Active | Activity (HCC1806 [2]): 3.61% | Activity [3]: Non-Toxic | Activity (HCC1806 [4]): 65.83% | Activity (HCC1806 [5]): Dose-dependent effect
